# Test system: 126254-015-R-J1-PDC complex spheroid growth, % test/control
# Assay: Anticancer human tumor 126254-015-R-J1-PDC patient-derived soft tissue sarcoma cell line growth inhibition [Asc]
# Conditions: for IC50: curve of first compound; for viability, T/C: stronger effect = lower value
# Method in brief: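 Tumor cells were grown as complex spheroids with human endothelial cells (HUVEC) and human mesenchymal stem cells as stroma. Agents were tested alone and in combination, in half-log steps down from the clinical Cmax, or from 10 microM where Cmax was unknown.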
# 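Further: spheroids exposed to compound for seven days.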
# 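Wherever viability, T/C is given: 100% = DMSO vehicle control wells.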
smiles,measurement,setting,value
Cc1nc(N2CCC3(CC2)COC(C)C3N)c(CO)nc1Sc1ccnc(N)c1Cl (stereo not given) + CCN1C(C(=O)NC23CCC(C(=O)O)(CC2)CC3)C(c2cccc(Cl)c2F)C2(C(=O)Nc3cc(Cl)ccc32)C12CCCCC2,IC50,second compound 0.03 µM,1430 nM
same,IC50,second compound 0.0949 µM,759 nM
same,IC50,second compound 0.3 µM,1050 nM
same,IC50,second compound 0.949 µM,785 nM
same,IC50,second compound 3 µM,891 nM
same,"viability, T/C","second compound 0.03 µM, first compound 0.00949 µM",98.5%
same,"viability, T/C","second compound 0.03 µM, first compound 0.03 µM",87.4%
same,"viability, T/C","second compound 0.03 µM, first compound 0.0949 µM",81.1%
same,"viability, T/C","second compound 0.03 µM, first compound 0.3 µM",64.8%
same,"viability, T/C","second compound 0.03 µM, first compound 0.949 µM",59.5%
same,"viability, T/C","second compound 0.03 µM, first compound 3 µM",38.8%
same,"viability, T/C","second compound 0.0949 µM, first compound 0.00949 µM",90.7%
same,"viability, T/C","second compound 0.0949 µM, first compound 0.03 µM",95.8%
same,"viability, T/C","second compound 0.0949 µM, first compound 0.0949 µM",86.3%
same,"viability, T/C","second compound 0.0949 µM, first compound 0.3 µM",63.2%
same,"viability, T/C","second compound 0.0949 µM, first compound 0.949 µM",47.8%
same,"viability, T/C","second compound 0.0949 µM, first compound 3 µM",43%
same,"viability, T/C","second compound 0.3 µM, first compound 0.00949 µM",88.7%
same,"viability, T/C","second compound 0.3 µM, first compound 0.03 µM",93.5%
same,"viability, T/C","second compound 0.3 µM, first compound 0.0949 µM",69.9%
same,"viability, T/C","second compound 0.3 µM, first compound 0.3 µM",60.7%
same,"viability, T/C","second compound 0.3 µM, first compound 0.949 µM",54.7%
same,"viability, T/C","second compound 0.3 µM, first compound 3 µM",42.5%
same,"viability, T/C","second compound 0.949 µM, first compound 0.00949 µM",91.3%
same,"viability, T/C","second compound 0.949 µM, first compound 0.03 µM",91.2%
same,"viability, T/C","second compound 0.949 µM, first compound 0.0949 µM",76.8%
same,"viability, T/C","second compound 0.949 µM, first compound 0.3 µM",59.1%
same,"viability, T/C","second compound 0.949 µM, first compound 0.949 µM",51.2%
same,"viability, T/C","second compound 0.949 µM, first compound 3 µM",38.4%
same,"viability, T/C","second compound 3 µM, first compound 0.00949 µM",98.2%
same,"viability, T/C","second compound 3 µM, first compound 0.03 µM",87.8%
same,"viability, T/C","second compound 3 µM, first compound 0.0949 µM",85%
same,"viability, T/C","second compound 3 µM, first compound 0.3 µM",63.8%
same,"viability, T/C","second compound 3 µM, first compound 0.949 µM",49.6%
same,"viability, T/C","second compound 3 µM, first compound 3 µM",39.2%
COc1c(OCCCN2CCOCC2)ccc2c3n(c(=NC(=O)c4cnc(N)nc4)nc12)CCN3 + CNC(C)C(=O)NC1CN(S(=O)(=O)c2cccc(S(=O)(=O)N3CCC4CCC(C(=O)NC(c5ccccc5)c5ccccc5)N4C(=O)C(NC(=O)C(C)NC)C3)c2)CCC2CCC(C(=O)NC(c3ccccc3)c3ccccc3)N2C1=O,IC50,second compound 0.01 µM,52 nM
same,IC50,second compound 0.0316 µM,53.3 nM
same,IC50,second compound 0.1 µM,32.3 nM
same,IC50,second compound 0.316 µM,19.9 nM
same,IC50,second compound 1 µM,15.8 nM
same,"viability, T/C","second compound 0.01 µM, first compound 0.00316 µM",84.8%
same,"viability, T/C","second compound 0.01 µM, first compound 0.01 µM",82.4%
same,"viability, T/C","second compound 0.01 µM, first compound 0.0316 µM",57.8%
same,"viability, T/C","second compound 0.01 µM, first compound 0.1 µM",37.3%
same,"viability, T/C","second compound 0.01 µM, first compound 0.316 µM",20.1%
same,"viability, T/C","second compound 0.01 µM, first compound 1 µM",12.5%
same,"viability, T/C","second compound 0.0316 µM, first compound 0.00316 µM",74.8%
same,"viability, T/C","second compound 0.0316 µM, first compound 0.01 µM",73.2%
same,"viability, T/C","second compound 0.0316 µM, first compound 0.0316 µM",60.7%
same,"viability, T/C","second compound 0.0316 µM, first compound 0.1 µM",36.6%
same,"viability, T/C","second compound 0.0316 µM, first compound 0.316 µM",19.3%
same,"viability, T/C","second compound 0.0316 µM, first compound 1 µM",11.4%
same,"viability, T/C","second compound 0.1 µM, first compound 0.00316 µM",66.1%
same,"viability, T/C","second compound 0.1 µM, first compound 0.01 µM",63.5%
same,"viability, T/C","second compound 0.1 µM, first compound 0.0316 µM",47.9%
same,"viability, T/C","second compound 0.1 µM, first compound 0.1 µM",36%
same,"viability, T/C","second compound 0.1 µM, first compound 0.316 µM",17.5%
same,"viability, T/C","second compound 0.1 µM, first compound 1 µM",11.2%
same,"viability, T/C","second compound 0.316 µM, first compound 0.00316 µM",60.8%
same,"viability, T/C","second compound 0.316 µM, first compound 0.01 µM",54.6%
same,"viability, T/C","second compound 0.316 µM, first compound 0.0316 µM",47.8%
same,"viability, T/C","second compound 0.316 µM, first compound 0.1 µM",29.1%
same,"viability, T/C","second compound 0.316 µM, first compound 0.316 µM",18.2%
same,"viability, T/C","second compound 0.316 µM, first compound 1 µM",9.08%
same,"viability, T/C","second compound 1 µM, first compound 0.00316 µM",53.7%
same,"viability, T/C","second compound 1 µM, first compound 0.01 µM",56.6%
same,"viability, T/C","second compound 1 µM, first compound 0.0316 µM",43.6%
same,"viability, T/C","second compound 1 µM, first compound 0.1 µM",28.3%
same,"viability, T/C","second compound 1 µM, first compound 0.316 µM",15.6%
same,"viability, T/C","second compound 1 µM, first compound 1 µM",9.01%
O=C(c1ccc(F)c(F)c1Nc1ccc(I)cc1F)N1CC(O)([C@@H]2CCCCN2)C1 + CCN1C(C(=O)NC23CCC(C(=O)O)(CC2)CC3)C(c2cccc(Cl)c2F)C2(C(=O)Nc3cc(Cl)ccc32)C12CCCCC2,IC50,second compound 0.03 µM,552 nM
same,IC50,second compound 0.0949 µM,622 nM
same,IC50,second compound 0.3 µM,570 nM
same,IC50,second compound 0.949 µM,638 nM
same,IC50,second compound 3 µM,641 nM
same,"viability, T/C","second compound 0.03 µM, first compound 0.00316 µM",100%
same,"viability, T/C","second compound 0.03 µM, first compound 0.01 µM",108%
same,"viability, T/C","second compound 0.03 µM, first compound 0.0316 µM",97.2%
same,"viability, T/C","second compound 0.03 µM, first compound 0.1 µM",96.2%
same,"viability, T/C","second compound 0.03 µM, first compound 0.316 µM",65.6%
same,"viability, T/C","second compound 0.03 µM, first compound 1 µM",33.2%
same,"viability, T/C","second compound 0.0949 µM, first compound 0.00316 µM",105%
same,"viability, T/C","second compound 0.0949 µM, first compound 0.01 µM",109%
same,"viability, T/C","second compound 0.0949 µM, first compound 0.0316 µM",107%
same,"viability, T/C","second compound 0.0949 µM, first compound 0.1 µM",97.8%
same,"viability, T/C","second compound 0.0949 µM, first compound 0.316 µM",68.9%
same,"viability, T/C","second compound 0.0949 µM, first compound 1 µM",36.8%
same,"viability, T/C","second compound 0.3 µM, first compound 0.00316 µM",107%
same,"viability, T/C","second compound 0.3 µM, first compound 0.01 µM",106%
same,"viability, T/C","second compound 0.3 µM, first compound 0.0316 µM",112%
same,"viability, T/C","second compound 0.3 µM, first compound 0.1 µM",82.9%
same,"viability, T/C","second compound 0.3 µM, first compound 0.316 µM",68.8%
same,"viability, T/C","second compound 0.3 µM, first compound 1 µM",34.3%
same,"viability, T/C","second compound 0.949 µM, first compound 0.00316 µM",102%
same,"viability, T/C","second compound 0.949 µM, first compound 0.01 µM",110%
same,"viability, T/C","second compound 0.949 µM, first compound 0.0316 µM",106%
same,"viability, T/C","second compound 0.949 µM, first compound 0.1 µM",86.2%
same,"viability, T/C","second compound 0.949 µM, first compound 0.316 µM",63.5%
same,"viability, T/C","second compound 0.949 µM, first compound 1 µM",41.8%
same,"viability, T/C","second compound 3 µM, first compound 0.00316 µM",99.5%
same,"viability, T/C","second compound 3 µM, first compound 0.01 µM",99.7%
same,"viability, T/C","second compound 3 µM, first compound 0.0316 µM",100%
same,"viability, T/C","second compound 3 µM, first compound 0.1 µM",87.2%
same,"viability, T/C","second compound 3 µM, first compound 0.316 µM",69.2%
same,"viability, T/C","second compound 3 µM, first compound 1 µM",38.2%

# Reference: PubChem BioAssay AID1963429 (Molecular Pharmacology Branch, DTP, NCI, 2024)
